In patent US8192986B2, “Compositions and methods for treatment of protein misfolding diseases” (Whitehead Institute for Biomedical Research, priority 2004, dated 2012):

Tested on: yeast cells expressing low levels of huntingtin
Assay: Huntingtin toxicity in yeast grown in the presence of an ER stress inducer (FIG. 6B)
Type: cell-based
Settings: yeast cells grown in the presence of tunicamycin, low levels of huntingtin expressed
Description: The unfolded protein response in yeast is depicted in FIG. 6A. […] Conversely, expression of constitutively active IRE1 or HAC (proteins that induce the UPR) ameliorated the toxic effects of high level expression of 103 Q huntingtin in yeast (FIGS. 6D and 6E).

tunicamycin
huntingtin toxicity in yeast cells: enhanced toxicity
